Measurements reported in US9402395B2, “Insecticidal compounds” (Syngenta Participations AG, priority 2013, dated 2016).

What was measured:
Assay type in all cases: in vivo
Plutella xylostella = Plutella xylostella (Diamond back moth) larva test on artificial diet; conditions: 144 h, application rate of 200 ppm (concentration in well 18 ppm), L2 larvae, larval mortality and growth regulation after 6 days
Procedure: (§1) Plutella xylostella (Diamond back moth): 24-well microtiter plate (MTP) with artificial diet was treated with test solutions at an application rate of 200 ppm (concentration in well 18 ppm) by pipetting. After drying, the MTP's were infested with L2 larvae (7-12 per well). After an incubation period of 6 days, samples were checked for larval mortality and growth regulation.

Spodoptera littoralis = Spodoptera littoralis (Egyptian cotton leafworm) cotton leaf disc spray test; conditions: foliar, 72 h, application rate of 200 ppm, cotton leaf discs, L1 larvae, mortality, feeding behavior, growth regulation 3 days after treatment
Source text: Spodoptera littoralis (Egyptian cotton leafworm): Cotton leaf discs were placed on agar in a 24-well microtiter plate and sprayed with test solutions at an application rate of 200 ppm. After drying, the leaf discs were infested with 5 L1 larvae. The samples were checked for mortality, feeding behavior, and growth regulation 3 days after treatment (DAT).

Myzus persicae = Myzus persicae (Green peach aphid) sunflower leaf disc spray test; conditions: foliar, 144 h, application rate of 200 ppm, sunflower leaf discs, aphid population of mixed ages, mortality after 6 DAT
Procedure: Myzus persicae (Green peach aphid): Sunflower leaf discs were placed on agar in a 24-well microtiter plate and sprayed with test solutions at an application rate of 200 ppm. After drying, the leaf discs were infested with an aphid population of mixed ages. After an incubation period of 6 DAT, samples were checked for mortality.

Tetranychus urticae = Tetranychus urticae (Two-spotted spider mite) bean leaf disc spray test; conditions: foliar, 192 h, application rate of 200 ppm, bean leaf discs, mite populations of mixed ages, egg, larval and adult mortality 8 days later
Source text: Tetranychus urticae (Two-spotted spider mite): Bean leaf discs on agar in 24-well microtiter plates were sprayed with test solutions at an application rate of 200 ppm. After drying, the leaf discs are infested with mite populations of mixed ages. 8 days later, discs are checked for egg mortality, larval mortality, and adult mortality.

Thrips tabaci = Thrips tabaci (Onion thrips) sunflower leaf disc spray test; conditions: foliar, 168 h, application rate of 200 ppm, sunflower leaf discs, population of mixed ages, mortality after 7 days
Procedure: Thrips tabaci (Onion thrips): Sunflower leaf discs were placed on agar in a 24-well microtiter plate and sprayed with test solutions at an application rate of 200 ppm. […] After an incubation period of 7 days, samples were checked for mortality.

Diabrotica balteata = Diabrotica balteata (Corn root worm) larva test on artificial diet; conditions: 120 h, application rate of 200 ppm (concentration in well 18 ppm), L2 larvae, larval mortality and growth regulation after 5 days
Procedure: as §1, with “Diabrotica balteata (Corn root worm): A” for “Plutella xylostella (Diamond back moth):”, “(6-10” for “(7-12”, “5” for “6”

Heliothis virescens = Heliothis virescens (Tobacco budworm) egg/larva test on artificial diet; conditions: 96 h, application rate of 200 ppm (concentration in well 18 ppm), eggs 0-24 h old on artificial diet, egg mortality, larval mortality, growth regulation after 4 days
Procedure: Heliothis virescens (Tobacco budworm): Eggs (0-24 h old) were placed in 24-well microtiter plate on artificial diet and treated with test solutions at an application rate of 200 ppm (concentration in well 18 ppm) by pipetting. After an incubation period of 4 days, samples were checked for egg mortality, larval mortality, and growth regulation.

Measured: pest or weed control at 200 ppm

CCCN(C(=O)c1ccc[n+]([O-])c1)c1cccc(C(=O)N(C)c2c(Cl)cc(C(F)(C(F)(F)F)C(F)(F)F)cc2Br)c1F [Compound 1, N′-[3-[[2-bromo-6-chloro-4-[1,1,1,2,3,3,3-heptafluoro-prop-2-yl]phenyl]-N′-methyl-carbamoyl]-2-fluoro-phenyl]-N-propyl-1-oxido-pyridin-1-ium-3-carboxamide]
not listed: Diabrotica balteata | Heliothis virescens
≥ 80%: all other assays above

CCc1cc(C(F)(C(F)(F)F)C(F)(F)F)cc(Br)c1N(C)C(=O)c1cccc(N(C)C(=O)c2cccnc2)c1F [Compound 2]
≥ 80%: all assays above

Cc1cc(C(F)(C(F)(F)F)C(F)(F)F)cc(Br)c1N(C)C(=O)c1cccc(N(C)C(=O)c2cccnc2)c1F [Compound 3]
not listed: Tetranychus urticae
≥ 80%: all other assays above

CN(C(=O)c1cccnc1)c1cccc(C(=O)Nc2c(Cl)cc(C(F)(C(F)(F)F)C(F)(F)F)cc2Br)c1F [Compound 4]
not listed: Spodoptera littoralis
≥ 80%: all other assays above

CN(C(=O)c1ccc[n+]([O-])c1)c1cccc(C(=O)Nc2c(Cl)cc(C(F)(C(F)(F)F)C(F)(F)F)cc2Br)c1F [Compound 5]
not listed: Thrips tabaci
≥ 80%: all other assays above

CCN(C(=O)c1cccnc1)c1cccc(C(=O)Nc2c(Cl)cc(C(F)(C(F)(F)F)C(F)(F)F)cc2Br)c1F [Compound 6]
≥ 80%: all assays above

CCN(C(=O)c1ccc[n+]([O-])c1)c1cccc(C(=O)Nc2c(Cl)cc(C(F)(C(F)(F)F)C(F)(F)F)cc2Br)c1F [Compound 7]
not listed: Thrips tabaci
≥ 80%: all other assays above

CCCN(C(=O)c1cccnc1)c1cccc(C(=O)Nc2c(Cl)cc(C(F)(C(F)(F)F)C(F)(F)F)cc2Cl)c1 [Compound 8]
not listed: Tetranychus urticae
≥ 80%: all other assays above

CCCN(C(=O)c1ccc[n+]([O-])c1)c1cccc(C(=O)Nc2c(Cl)cc(C(F)(C(F)(F)F)C(F)(F)F)cc2Cl)c1 [Compound 9]
≥ 80%: Plutella xylostella | Myzus persicae | Heliothis virescens | Thrips tabaci

CCN(C(=O)c1cccnc1)c1cccc(C(=O)Nc2c(Br)cc(C(F)(C(F)(F)F)C(F)(F)F)cc2Br)c1F [Compound 11]
≥ 80%: all assays above

CN(C(=O)c1cccnc1)c1cccc(C(=O)Nc2c(Br)cc(C(F)(C(F)(F)F)C(F)(F)F)cc2Br)c1F [Compound 12]
≥ 80%: all assays above

CCN(C(=O)c1ccc[n+]([O-])c1)c1cccc(C(=O)Nc2c(Br)cc(C(F)(C(F)(F)F)C(F)(F)F)cc2Br)c1F [Compound 13]
≥ 80%: all assays above

CN(C(=O)c1cccnc1)c1cccc(C(=O)N(C)c2c(Br)cc(C(F)(C(F)(F)F)C(F)(F)F)cc2Br)c1 [Compound 15]
not listed: Tetranychus urticae | Diabrotica balteata
≥ 80%: all other assays above

CCN(C(=O)c1cccnc1)c1cccc(C(=O)Nc2c(Cl)cc(C(F)(C(F)(F)F)C(F)(F)F)cc2Cl)c1F [Compound 16]
≥ 80%: all assays above

Cc1cc(C(F)(C(F)(F)F)C(F)(F)F)cc(Cl)c1NC(=O)c1cccc(N(C)C(=O)c2cccnc2)c1F [Compound 17]
≥ 80%: all assays above

CCN(C(=O)c1cccnc1)c1cccc(C(=O)Nc2c(C)cc(C(F)(C(F)(F)F)C(F)(F)F)cc2Cl)c1F [Compound 18]
≥ 80%: all assays above
